Assays:
[1] = system: regions of wound healing; assay: Wound healing delineation by MRI; type: in vivo, rat; settings: site opened two weeks prior for injecting tumor cells
Method: MRI was performed at day 16 after tumor cell implantation. The animals were anesthetized and injected interperitoneally with either 200 microliters of gadodiamide (287 mg gadodiamide/ml) (Omniscan, Nycomed, Princeton, N.J.) or 200 microliters of the extended cobalt complex (containing 10 mg Co/ml ±30%). The rats were immediately positioned on a support and MRI was performed in a 1.5 tesla whole-body clinical scanner (Siemens Vision, Germany) with a human extremity (knee) coil. High-resolution turbo spin-echo sagittal imaging was used for selecting slice position with imaging parameters as follows. For T2 weighted images: repetition time (TR)=3000 msec; echo time (TE)=25 msec; field of view (FOV)=100×100 mm; matrix size=256×256; image slice thickness (TH)=2 mm. Tumor images were collected at various times after a single interperitoneal injection. Imaging times were 3 min/scan and resolution was […]. Imaging covered a 30 min period after injection.
This is surprising as the vasculature and components of a wounded region differ from normal tissue only subtly, and these differences are not highlighted by the gadodiamide reagent. This type of imaging can be used to detect internal damage, internal bleeding, or other forms of lesions with MRI using the cobalt complex as contrast agent.
Methods were performed as in Example 8.

[2] = rat, in vivo, ip
[3] = system: brain tumor (N32 and F98); assay: MRI of brain tumors in rats with contrast agent; type: in vivo, rat
Text: Rats were implanted with tumors by stereotactic infusion of tumor cells into the brain.
Various MRI imaging modes were used in the analysis: T1-weighted, T2-weighted, and T2*-weighted.
Rats weighing about 350 g, seeded with either F98 or N32 cells were used for tumor imaging. A<0.5 mm burr hole was drilled through the skull of the anesthetized rats at the point of inoculation. Tumors were initiated by inoculating one microliter of culture medium, containing 10,000 cultured cells, 4-5 mm deep into the left striatum, at a point 4 mm to the left of the midline in the (serrated) coronal suture. A 27-gauge needle fitted with a depth-limiting plastic collar to ensure cell injection 4-5 mm beneath the skull was connected to a Hamilton microsyringe via flexible tubing. Following a 30-second infusion of the cells, another 30 seconds was taken to allow the cells to settle before removing the needle. For F98 tumor animals, death ensued 24+ days after inoculation.
MRI was performed at day 16 after tumor cell implantation. […] The rats were immediately positioned on a support and MRI was performed in a 1.5 tesla whole-body clinical scanner (Siemens Vision, Germany) with a human extremity (knee) coil. High-resolution turbo spin-echo sagittal imaging was used for selecting slice position with imaging parameters as follows. […]

For `CNC(=O)CN(CCN(CCN(CC(=O)[O-])CC(=O)NC)CC(=O)[O-])CC(=O)[O-].[Gd+3]` [gadodiamide], the “image contrast at wound site by MRI” value [1] was “No such contrast was evident”, the “ALBm (albumen)” value [2] was 1.5 g/dL and the “ALP (alkaline phosphatase)” value [2] was 202 IU/L. For the same compound, the “ALT (alanine transaminase)” value [2] was 62 IU/L, the “AST (aspartate transaminase)” value [2] was 183 IU/L and the “BUNm (blood urea nitrogen)” value [2] was 16 mg/dL. For the same compound, the “CK (creatine kinase)” value [2] was 820 IU/L, the “CL (chloride)” value [2] was 101 mEq/L and the “CO2 (carbon dioxide)” value [2] was 30 mEq/L. For the same compound, the “GLUCm (glucose)” value [2] was 177 mg/dL, the “K (potassium)” value [2] was 5.5 mEq/L and the “NA (sodium)” value [2] was 139 mEq/L. For the same compound, the “liver enzyme activity compared to the control” value [2] was “slight increase”, the “tumor visibility in all MRI imaging modes” value ([3]; T1-weighted, T2-weighted and T2*-weighted) was “no trace of any tumors was evident” and the “enhancement / imaging of brain tumor by MRI” value ([3]; rats with N32 or F98 tumor, 200 microliters interperitoneally, 1.5 tesla) was “No enhancement”.
